Paper PMC4948680 (European journal of pharmaceutical sciences : official …, 2016)

Experiments:
in vivo = assay: in vivo; set-up: species or system Swiss albino mice; conditions: mouse; for tissue uptake at 0.5 h / tissue uptake at 1 h / tissue uptake at 4 h / tissue uptake at 48 h / tissue uptake at 72 h / tissue uptake at 24 h: Swiss albino, iv, 10 pmol peptide, total radioactivity, %ID/g tissue
Protocol: Samples of blood and tissues of interest were excised, weighted and counted for radioactivity in the gamma counter (automated well-type multi-sample gamma counter; NaI(Tl) 3'' crystal, Canberra Packard Auto-Gamma 5000 series instrument). Data was calculated as percent injected dose per gramtissue (%ID/g) with the aid of suitable standards of the injected dose. Statistical analysis using the unpaired two-tailed Student's t-test was performed to compare values between A431-CCK2R(+) and A431-CCK2R(-) tumours, as well as kidney, stomach and A431-CCK2R(+) tumour values between 4 h control and gelofusine-treated animal groups; values P < 0.05 were considered statistically significant (Table 2). The pharmacokinetic profile was determined by fitting an exponential curve through the organ time-activity data according to the least-squares method. The number of exponentials in the fitted curve was analysed according to the […] Information Criterion (AICc). All fitting was performed with Graphpad Prism version 5.

[1] = set-up: species or system mice
Protocol: Clearance kinetics in each organ was determined by exponential curve fitting. The time-integrated activity concentration (TIAC) was obtained by integration of this exponential curve folded with the decay curve of ^111In and ^177Lu.Mouse dosimetry was calculated for both ^177Lu and ^111In using the TIAC and the 25 g RADAR mouse absorbed dose rates per unit activity S for each source and target organ combination ([Keenan et al., 2010]; [Konijnenberg et al., 2014]).

With `CSCC[C@H](NC(=O)[C@H](Cc1c[nH]c2ccccc12)NC(=O)CNC(=O)[C@H](Cc1ccc(O)cc1)NC(=O)[C@H](C)NC(=O)[C@@H](CCC(=O)O)NC(=O)[C@@H](CCC(=O)O)NC(=O)[C@@H](CCC(=O)O)NC(=O)[C@@H](CCC(=O)O)NC(=O)[C@@H](CCC(=O)O)NC(=O)[C@@H](CCC(=O)O)NC(=O)CN1CCN(CC(=O)O)CCN(CC(=O)O)CCN(CC(=O)O)CC1)C(=O)N[C@@H](CC(=O)O)C(=O)N[C@@H](Cc1ccccc1)C(N)=O` [^111In-CP04, ^111In-DOTA-(DGlu)6-Ala-Tyr-Gly-Trp-Met-Asp-Phe-NH2, metal not drawn] as the compound, how does the tissue uptake at 0.5 h (in vivo; Blood) read?
Its tissue uptake at 0.5 h is 1.74 ± 0.22 %ID/g.

What about the tissue uptake at 1 h (in vivo; Blood) of the same compound?
The tissue uptake at 1 h was 0.51 ± 0.14 %ID/g.

And the tissue uptake at 4 h (in vivo; Blood)?
The tissue uptake at 4 h was 0.02 ± 0.01 %ID/g.

And the tissue uptake at 48 h (in vivo; Blood)?
The tissue uptake at 48 h was 0.01 ± 0.01 %ID/g.

And the tissue uptake at 72 h (in vivo; Blood)?
The tissue uptake at 72 h was 0.01 ± 0.01 %ID/g.

And the tissue uptake at 0.5 h (in vivo; Femur)?
Its tissue uptake at 0.5 h is 4.62 ± 1.24 %ID/g.

What about the tissue uptake at 1 h (in vivo; Femur) of the same compound?
The tissue uptake at 1 h was 2.62 ± 0.42 %ID/g.

What about the tissue uptake at 4 h (in vivo; Femur) of the same compound?
The tissue uptake at 4 h was 0.96 ± 0.18 %ID/g.

And the tissue uptake at 24 h (in vivo; Femur)?
Its tissue uptake at 24 h is 0.53 ± 0.04 %ID/g.

What about the tissue uptake at 48 h (in vivo; Femur) of the same compound?
The tissue uptake at 48 h was 0.55 ± 0.11 %ID/g.

And the tissue uptake at 72 h (in vivo; Femur)?
Its tissue uptake at 72 h is 0.49 ± 0.06 %ID/g.

And the tissue uptake at 0.5 h (in vivo; Heart)?
Its tissue uptake at 0.5 h is 0.7 ± 0.1 %ID/g.

What about the tissue uptake at 4 h (in vivo; Heart) of the same compound?
Its tissue uptake at 4 h is 0.03 ± 0.01 %ID/g.

And the tissue uptake at 24 h (in vivo; Heart)?
The tissue uptake at 24 h was 0.02 ± 0.01 %ID/g.

What about the tissue uptake at 48 h (in vivo; Heart) of the same compound?
Its tissue uptake at 48 h is 0.02 ± 0.01 %ID/g.

What about the tissue uptake at 72 h (in vivo; Heart) of the same compound?
Its tissue uptake at 72 h is 0.03 ± 0.02 %ID/g.

And the tissue uptake at 0.5 h (in vivo; Intestines)?
Its tissue uptake at 0.5 h is 0.82 ± 0.14 %ID/g.

What about the tissue uptake at 1 h (in vivo; Intestines) of the same compound?
The tissue uptake at 1 h was 0.39 ± 0.12 %ID/g.

And the tissue uptake at 4 h (in vivo; Intestines)?
Its tissue uptake at 4 h is 1.05 ± 0.35 %ID/g.

And the tissue uptake at 48 h (in vivo; Intestines)?
The tissue uptake at 48 h was 0.08 ± 0.02 %ID/g.

What about the tissue uptake at 72 h (in vivo; Intestines) of the same compound?
Its tissue uptake at 72 h is 0.09 ± 0.04 %ID/g.

What about the tissue uptake at 0.5 h (in vivo; Kidneys) of the same compound?
Its tissue uptake at 0.5 h is 9.8 ± 2.07 %ID/g.

And the tissue uptake at 1 h (in vivo; Kidneys)?
The tissue uptake at 1 h was 8.84 ± 2.05 %ID/g.

What about the tissue uptake at 4 h (in vivo; Kidneys) of the same compound?
Its tissue uptake at 4 h is 7.9 ± 1.98 %ID/g.

What about the tissue uptake at 24 h (in vivo; Kidneys) of the same compound?
Its tissue uptake at 24 h is 3.61 ± 0.31 %ID/g.

And the tissue uptake at 48 h (in vivo; Kidneys)?
Its tissue uptake at 48 h is 2.81 ± 0.63 %ID/g.

What about the tissue uptake at 72 h (in vivo; Kidneys) of the same compound?
The tissue uptake at 72 h was 2.62 ± 0.24 %ID/g.

And the tissue uptake at 0.5 h (in vivo; Liver)?
Its tissue uptake at 0.5 h is 0.77 ± 0.11 %ID/g.

And the tissue uptake at 1 h (in vivo; Liver)?
Its tissue uptake at 1 h is 0.32 ± 0.15 %ID/g.

And the tissue uptake at 24 h (in vivo; Liver)?
Its tissue uptake at 24 h is 0.06 ± 0.01 %ID/g.

What about the tissue uptake at 48 h (in vivo; Liver) of the same compound?
Its tissue uptake at 48 h is 0.06 %ID/g.

What about the tissue uptake at 72 h (in vivo; Liver) of the same compound?
The tissue uptake at 72 h was 0.05 ± 0.01 %ID/g.

And the tissue uptake at 0.5 h (in vivo; Lung)?
The tissue uptake at 0.5 h was 1.05 ± 0.1 %ID/g.

And the tissue uptake at 1 h (in vivo; Lung)?
Its tissue uptake at 1 h is 0.4 ± 0.1 %ID/g.

And the tissue uptake at 4 h (in vivo; Lung)?
Its tissue uptake at 4 h is 0.06 ± 0.01 %ID/g.

And the tissue uptake at 24 h (in vivo; Lung)?
Its tissue uptake at 24 h is 0.03 ± 0.01 %ID/g.

And the tissue uptake at 48 h (in vivo; Lung)?
Its tissue uptake at 48 h is 0.02 ± 0.01 %ID/g.

What about the tissue uptake at 72 h (in vivo; Lung) of the same compound?
The tissue uptake at 72 h was 0.03 ± 0.01 %ID/g.

And the tissue uptake at 0.5 h (in vivo; Muscle)?
The tissue uptake at 0.5 h was 0.59 ± 0.1 %ID/g.

And the tissue uptake at 4 h (in vivo; Muscle)?
Its tissue uptake at 4 h is 0.04 ± 0.02 %ID/g.

What about the tissue uptake at 24 h (in vivo; Muscle) of the same compound?
The tissue uptake at 24 h was 0.02 ± 0.01 %ID/g.

What about the tissue uptake at 48 h (in vivo; Muscle) of the same compound?
Its tissue uptake at 48 h is 0.03 ± 0.02 %ID/g.

What about the tissue uptake at 72 h (in vivo; Muscle) of the same compound?
Its tissue uptake at 72 h is 0.03 ± 0.02 %ID/g.

What about the tissue uptake at 0.5 h (in vivo; Pancreas) of the same compound?
Its tissue uptake at 0.5 h is 0.67 ± 0.08 %ID/g.

What about the tissue uptake at 4 h (in vivo; Pancreas) of the same compound?
Its tissue uptake at 4 h is 0.1 ± 0.01 %ID/g.

What about the tissue uptake at 24 h (in vivo; Pancreas) of the same compound?
Its tissue uptake at 24 h is 0.05 ± 0.01 %ID/g.

And the tissue uptake at 48 h (in vivo; Pancreas)?
The tissue uptake at 48 h was 0.04 ± 0.01 %ID/g.

And the tissue uptake at 72 h (in vivo; Pancreas)?
The tissue uptake at 72 h was 0.06 ± 0.03 %ID/g.

And the tissue uptake at 0.5 h (in vivo; Spleen)?
The tissue uptake at 0.5 h was 0.36 ± 0.04 %ID/g.

What about the tissue uptake at 4 h (in vivo; Spleen) of the same compound?
Its tissue uptake at 4 h is 0.05 ± 0.01 %ID/g.

And the tissue uptake at 24 h (in vivo; Spleen)?
Its tissue uptake at 24 h is 0.04 ± 0.01 %ID/g.

What about the tissue uptake at 48 h (in vivo; Spleen) of the same compound?
Its tissue uptake at 48 h is 0.03 ± 0.01 %ID/g.

What about the tissue uptake at 72 h (in vivo; Spleen) of the same compound?
The tissue uptake at 72 h was 0.04 ± 0.01 %ID/g.

And the tissue uptake at 0.5 h (in vivo; Stomach)?
The tissue uptake at 0.5 h was 4.88 ± 0.85 %ID/g.

What about the tissue uptake at 1 h (in vivo; Stomach) of the same compound?
The tissue uptake at 1 h was 2.99 ± 0.55 %ID/g.

And the tissue uptake at 4 h (in vivo; Stomach)?
The tissue uptake at 4 h was 2.61 ± 0.82 %ID/g.

And the tissue uptake at 24 h (in vivo; Stomach)?
The tissue uptake at 24 h was 1.48 ± 0.55 %ID/g.

And the tissue uptake at 48 h (in vivo; Stomach)?
The tissue uptake at 48 h was 1.26 ± 0.26 %ID/g.

And the tissue uptake at 72 h (in vivo; Stomach)?
Its tissue uptake at 72 h is 0.92 ± 0.04 %ID/g.

What about the gastrointestinal tract clearance (in vivo) of the same compound?
Its gastrointestinal tract clearance is 2.5%.

What about the “total body clearance T1/2, fast component (90%)” value (in vivo) of the same compound?
The value was 17 min.

And the “total body clearance, fraction of fast component” value (in vivo)?
Its value is 90%.

What about the “total body clearance, fraction of slow component” value (in vivo) of the same compound?
The value was 10%.

And the “Absorbed dose per injected activity, Bone” value [1]?
The value was 9 mGy/MBq.

What about the “Absorbed dose per injected activity, Kidneys” value [1] of the same compound?
The value was 56 mGy/MBq.

What about the “Absorbed dose per injected activity, Large intestine” value [1] of the same compound?
Its value is 7 mGy/MBq.

What about the “Absorbed dose per injected activity, Liver” value [1] of the same compound?
The value was 3 mGy/MBq.

And the “Absorbed dose per injected activity, Lungs” value [1]?
The value was 3 mGy/MBq.

And the “Absorbed dose per injected activity, Pancreas” value [1]?
The value was 5 mGy/MBq.

What about the “Absorbed dose per injected activity, Small intestine” value [1] of the same compound?
Its value is 7 mGy/MBq.

What about the “Absorbed dose per injected activity, Spleen” value [1] of the same compound?
Its value is 3 mGy/MBq.

What about the “Absorbed dose per injected activity, Stomach wall” value [1] of the same compound?
The value was 15 mGy/MBq.

What about the “Absorbed dose per injected activity, Total body” value [1] of the same compound?
The value was 4 mGy/MBq.
